Patent US10548984B2 (priority 2015, dated 2020)
Non-standard residues stand in square brackets, D forms with d. Residues, ends and D or L forms follow the SMILES beside them.

How the values were obtained:
[1] = test system: mice; test: Immunogenicity study (serum antibody ELISA); assay type: in vivo, mouse; settings: i.v. injection
Experimental: Mice were injected intravenously with 50 μg of siRNA complexed with either the Test-Peptide or Test-RI Peptide vectors, with the peptide vector alone or with PBS as negative control for three consecutive days, and then on every alternate day for 14 days. […] To detect the presence of antibodies to the Test-Peptide or Test-RI-peptide, serum was collected from the mice on day 21 and serial double dilution (1:100 followed by 10 dilutions) of the sera was incubated in 384 well microtitre plate coated with either Test-Peptide or Test-RI-peptide (50 ng/well). The bound antibody was detected with a goat anti-mouse Ig-HRP conjugate.

[2] = test system: mice; settings: mouse, in vivo
[3] = test system: nAchRs present on M17 cells; test: Competitive binding assay and immunocytochemistry of biotinylated peptide on M17 cells; parameters: species or system human; settings: avidin-FITC
Experimental: To confirm that the binding specificity of the peptide to the neuronal cells was mediated by its binding to nAchRs, a competition assay was performed using alpha bangarotoxin (BTX) peptide, which is a competitive antagonist for nAchRs.
M17 cells were incubated with the biotinylated-peptide (SEQ ID NO:2) (2.5 μM) in the absence or presence of BTX peptide (0.01 μM or 0.1 μM) at 4° C. for 1 hr, stained with avidin-FITC and analyzed by FACS.
Immunocytochemistry was used to confirm the binding of the peptide (SEQ ID NO:2) to M17 cells. M17 cells were incubated with or without biotinylated-peptides (SEQ ID NO:2) or with the MAT peptide which served as a negative control. The cells were then stained with avidin-FITC and viewed by fluorescence microscopy.

| Compound | antibody response [1] | production of inflammatory cytokines [2] | binding of peptide to M17 cells (FITC-positive immunostaining) ([3]; biotinylated peptide, fluorescence microscopy) | inhibition of biotinylated-peptide (SEQ ID NO:2) binding to M17 cells ([3]; peptide 2.5 μM, BTX 0.01 μM or 0.1 μM, 4° C., 1 hr, FACS) |
| --- | --- | --- | --- | --- |
| CC[C@@H](C)[C@@H](NC(=O)[C@@H](Cc1ccccc1)NC(=O)[C@H](NC(=O)[C@@H](CC(N)=O)NC(=O)[C@@H](CO)NC(=O)[C@@H](CCCNC(=N)N)NC(=O)CNC(=O)[C@@H](CCCCN)NC(=O)CN(C)C(=O)CN(C)C(=O)CN(C)C(=O)CN(C)C(=O)[C@@H](CCCNC(=N)N)NC(=O)[C@@H](CCCNC(=N)N)NC(=O)[C@@H](CCCNC(=N)N)NC(=O)[C@@H](CCCNC(=N)N)NC(=O)[C@@H](CCCNC(=N)N)NC(=O)[C@@H](CCCNC(=N)N)NC(=O)[C@@H](CCCNC(=N)N)NC(=O)[C@@H](CCCNC(=N)N)NC(=O)[C@H](N)CCCNC(=N)N)[C@H](C)O)C(=O)N[C@H](CC(=O)O)C(=O)N[C@H](CS)C(=O)O [Test-RI-peptide, H-rrrrrrrrr-Sar-Sar-Sar-Sar-kGrsntfidc] | did not elicit an antibody response | did not elicit an antibody response or result in the production inflammatory cytokines | – | – |
| CC[C@H](C)[C@H](NC(=O)[C@H](CC(=O)O)NC(=O)[C@@H](N)CS)C(=O)N[C@@H](Cc1ccccc1)C(=O)N[C@H](C(=O)N[C@@H](CC(N)=O)C(=O)N[C@@H](CO)C(=O)N[C@@H](CCCNC(=N)N)C(=O)NCC(=O)N[C@@H](CCCCN)C(=O)NCC(=O)NCC(=O)NCC(=O)NCC(=O)N[C@H](CCCNC(=N)N)C(=O)N[C@H](CCCNC(=N)N)C(=O)N[C@H](CCCNC(=N)N)C(=O)N[C@H](CCCNC(=N)N)C(=O)N[C@H](CCCNC(=N)N)C(=O)N[C@H](CCCNC(=N)N)C(=O)N[C@H](CCCNC(=N)N)C(=O)N[C@H](CCCNC(=N)N)C(=O)N[C@H](CCCNC(=N)N)C(=O)O)[C@@H](C)O [Test-peptide] (H-CDIFTNSRGKGGGG[dR][dR][dR][dR][dR][dR][dR][dR][dR]-OH; C-terminus assumed) | did not elicit an antibody response | did not elicit an antibody response or result in the production inflammatory cytokines | – | – |
| CDIFTNSRGK [peptide (SEQ ID NO:2), RVG derived 10 residue peptide] | – | – | binds specifically to neuronal cells | – |
| alpha bangarotoxin [BTX, reference compound] | – | – | – | inhibited peptide binding to M17 cells in a dose-dependent manner |
